Usually EC50 stands for the concentration giving half of the maximal effect.

We go through 6 compounds from patent US8168233B2 (Amylin Pharmaceuticals, Inc., priority 2002, dated 2012).

One data set concerns soleus muscle. The conditions noted are these: read-out: EC50 in the soleus muscle assay; typical range of amylin preparations; […] insulin.
Data set [1] deals with caerulein-induced pancreatitis in ICR(CD-1) male mice. The experiment in a line: Effect of amylin on caerulein-induced pancreatitis (plasma amylase). It counts as in vivo. To be noted: amylin at levels as low as 0.01 μg injected at t=−5 min; plasma at 9 hours after first caerulein injection. As for the experimental part:
Male ICR mice, weighing approximately 20 g, were fasted overnight and throughout the experiment, but were allowed access to water ad libitum. […] At t=0, 0.01 μg/kg of caerulein in all but the normal group of mice. The dosing regimen for caerulein was repeated 3 times at 2 hour intervals. At t=9 hours, i.e., 9 hours after the first caerulein injection, the mice were bleed (orbital sinus) and the plasma assayed for amylase (Amylase 3 assay kit, Sigma Diagnostics Catalog #577-3, Sigma Diagnostics, St. Louis, Mo., USA).

A further data set has as its system rat pancreas. Nature of the data set: Inhibition of CCK-8 stimulated lipase and amylase secretion in rat pancreas (pancreatic juice collection in anesthetized rats). It counts as in vivo. To be noted: for Amylase, % from CCK-8 stimulated / Lipase, % from CCK-8 stimulated / Pancreatic flow, % from CCK-8 stimulated: decrease versus CCK-8 alone. The procedure:
Tracheotomy and cannulation of the right femoral artery were performed and body temperature was controlled with a thermoregulator (Model 73A, YSI, Yellow Springs, Ohio, USA) that switched a heated operating table. The femoral arterial line, used for blood sampling, was perfused with heparinized saline (2 u/ml) and connected to a pressure transducer for blood pressure recording (Spectramed P23XL transducer, Model 13-4615-58 amplifier, Gould, Cleveland, Ohio, USA). Through a midline incision two polyethylene cannulae were inserted into the common bile-pancreatic duct at a point about 0.5 cm above where the duct enters the pancreas. The first cannula was inserted up toward the liver to collect bile. The other end of this cannula was placed into the duodenum through a small incision in the duodenum. Thus, bile flowed directly from the liver to the small intestine, being shunted away from the pancreas completely.
A second polyethylene cannula was inserted into the common bile-pancreatic duct near the first but in the opposite direction to collect pancreatic juice. The other end of the pancreatic duct was tied off with a suture just at the point where it enters the duodenum, forcing any pancreatic juice produced to flow through the second cannula for collection. Pancreatic juice was collected every 15 min from −30 to 90 min. […] The volume of juice was measured and aliquots taken for enzymes determination. Amylase and lipase, which are secreted in pancreatic juice in an active form, were tested using diagnostic kits (Lipase-PS assay kit, Sigma Diagnostics Catalog #805-A and Amylase 3 assay kit, Sigma Diagnostics Catalog #577-3, Sigma Diagnostics, St. Louis, Mo., USA). To perform both assays, pancreatic juice was diluted with saline in proportion 1:2000. Activity of enzymes was expressed in units per 15 min (activity in pancreatic juice collected every 15 min).

The subject of data set [2] is pancreatic enzyme secretion. To be noted: rat model, doses resulting in physiological plasma concentrations; cited from earlier work.
For data set [3] the following is noted: human, in vivo; cited from earlier work.
A short description of data set [4]: Amylin activity in vivo in treated test animals (hyperlactemia followed by hyperglycemia). To be noted: e.g., provoking marked hyperlactemia followed by hyperglycemia.
Setting [5] is: Amylin 1 μg s.c. alone, no CCK-8.
Setting [6] is: Amylin 10 μg s.c. alone, no CCK-8.
Setting [7] is: CCK-8 1 μg and Amylin 0.1 μg s.c.
The mark [8] stands for this setting: CCK-8 1 μg and Amylin 0.3 μg s.c.
Setting [9] is: CCK-8 1 μg and Amylin 1.0 μg s.c.
[10] abbreviates: CCK-8 1 μg and Amylin 10.0 μg s.c.
Where [11] appears, read: s.c. amylin with CCK-8 1 μg, dose-dependent.
[12] abbreviates: ±0.09 log units, first ED50 sentence of b123.
Setting [13] is: ±0.09 log units, second ED50 sentence of b123.

Where no end group is shown, it is not given here.

Procedure for soleus muscle: The tendons of the muscles are ligated before attachment to stainless steel clips. […] Flasks are sealed and gassed continuously with O2 and CO2 in the ratio 19:1 (v/v). After pre-incubation of muscles in this medium for 30 min at 37° C. in an oscillating water bath, the muscles strips are transferred to similar vials containing identical medium (except pyruvate) with added [U-^14C] glucose (0.5 μCi/ml) and insulin (100 μU/ml). […] At the end of the incubation period, muscles are blotted and rapidly frozen in liquid N2. The concentration of lactate in the incubation medium can be determined spectrophotometrically and [U-^14C]glucose incorporation in glycogen measured.
Male Harlan Sprague-Dawley rats of approximately 200 g mass were used in order to maintain mass of the split soleus muscle less than 40 mg. The animals were fasted for 4 hours prior to sacrifice by decapitation. The skin was stripped from the lower limb which was then pinned out on corkboard. The tendo achilles was cut just above os calcis and m. gastrocnemius reflected out from the posterior aspect of the tibia. […]
^14C-glycogen determination was performed in a 7 mL scintillation vial. […] The remaining glycogen was redissolved in 1 mL water and 4 mL scintillation fluid and counted for ^14C. […]

With `CC[C@H](C)[C@H](NC(=O)[C@H](C)NC(=O)CNC(=O)[C@H](Cc1ccccc1)NC(=O)[C@H](CC(N)=O)NC(=O)[C@H](CC(N)=O)NC(=O)[C@H](CO)NC(=O)[C@H](CO)NC(=O)[C@H](Cc1c[nH]cn1)NC(=O)[C@@H](NC(=O)[C@H](CC(C)C)NC(=O)[C@H](Cc1ccccc1)NC(=O)[C@H](CC(N)=O)NC(=O)[C@H](C)NC(=O)[C@H](CC(C)C)NC(=O)[C@H](CCCNC(=N)N)NC(=O)[C@H](CCC(N)=O)NC(=O)[C@@H](NC(=O)[C@H](C)NC(=O)[C@@H]1CSSC[C@H](NC(=O)[C@@H](N)CCCCN)C(=O)N[C@@H](CC(N)=O)C(=O)N[C@@H]([C@@H](C)O)C(=O)N[C@@H](C)C(=O)N[C@@H]([C@@H](C)O)C(=O)N1)[C@@H](C)O)C(C)C)C(=O)N[C@@H](CC(C)C)C(=O)N[C@@H](CO)C(=O)N[C@@H](CO)C(=O)N[C@H](C(=O)N[C@@H](CC(N)=O)C(=O)N[C@H](C(=O)NCC(=O)N[C@@H](CO)C(=O)N[C@@H](CC(N)=O)C(=O)N[C@H](C(=O)N[C@@H](Cc1ccc(O)cc1)C(N)=O)[C@@H](C)O)C(C)C)[C@@H](C)O` [human amylin], the concentration for a half-maximal effect (EC50) with soleus muscle fell in the range of 1 to 10 nM.

For “Amylin: rat amylin (AR905-80) in Example II; amylin (AC128, Amylin Pharmaceuticals, Inc.) in Example I; 37 amino acid peptide hormone (KCNTATCATQRLANFLVHSSNNFGAILSSTNVGSNTY)”, the “reduction of elevated plasma amylase produced by caerulein” value in data set [1] is listed as “effectively reduce the elevated levels of plasma amylase”. Moreover, in the data set on rat pancreas (setting [5]), the Amylase came to 80.21 ± 35.71 U/45 min, the Lipase is listed as 149.51 ± 86.79 U/45 min and the Pancreatic flow was 30 ± 6 μl/45 min. Moreover, in the data set on rat pancreas (setting [6]), the Amylase stood at 61.95 ± 24.51 U/45 min, the Lipase is 64.67 ± 21.59 U/45 min and the Pancreatic flow was 13 ± 4 μl/45 min. In the data set with rat pancreas (setting [7]), the Amylase was 340.98 ± 40.91 U/45 min; the Lipase stood at 472.82 ± 58.67 U/45 min; the Pancreatic flow is 78 ± 8 μl/45 min; the “Amylase, % from CCK-8 stimulated” value is reported as 25.83%. In the data set on rat pancreas (setting [7]), the “Lipase, % from CCK-8 stimulated” value is 34.65% and the “Pancreatic flow, % from CCK-8 stimulated” value is recorded as 21.21%. Moreover, in the data set on rat pancreas (setting [8]), the Amylase came to 271.73 ± 48.38 U/45 min; the Lipase is recorded as 309.30 ± 74.31 U/45 min; the Pancreatic flow came out at 67 ± 6 μl/45 min; the “Amylase, % from CCK-8 stimulated” value is listed as 40.90%. For the same compound, in the data set on rat pancreas (setting [8]), the “Lipase, % from CCK-8 stimulated” value came to 57.25% and the “Pancreatic flow, % from CCK-8 stimulated” value was determined as 32.32%. Also, in the data set on rat pancreas (setting [9]), the Amylase is listed as 193.93 ± 34.40 U/45 min; the Lipase is 232.41 ± 58.01 U/45 min; the Pancreatic flow stood at 58 ± 12 μl/45 min; the “Amylase, % from CCK-8 stimulated” value is recorded as 57.32%. In the data set on rat pancreas (setting [9]), the “Lipase, % from CCK-8 stimulated” value came out at 67.87% and the “Pancreatic flow, % from CCK-8 stimulated” value amounted to 41.41%. Further, in the data set on rat pancreas (setting [10]), the Amylase was 353.68 ± 78.85 U/45 min; the Lipase amounted to 370.65 ± 85.67 U/45 min; the Pancreatic flow amounted to 90 ± 13 μl/45 min; the “Amylase, % from CCK-8 stimulated” value stood at 23.07%. Moreover, in the data set with rat pancreas (setting [10]), the “Lipase, % from CCK-8 stimulated” value is reported as 48.77% and the “Pancreatic flow, % from CCK-8 stimulated” value is recorded as 9.09%. In the data set with rat pancreas (setting [11]), the “inhibition of cholecystokinin stimulated pancreatic amylase activity (maximum)” value is listed as “up to 67.9%” and the “inhibition of secretion of cholecystokinin stimulated pancreatic lipase (maximum)” value is “up to 57.3%”. In the data set on rat pancreas (setting [12]), the “ED50 for suppression of pancreatic amylase activity” value is listed as 129 pmol/kg and the “ED50 for suppression of pancreatic lipase activity” value worked out at 129 pmol/kg. In addition, in the data set with rat pancreas (setting [13]), the “ED50 for suppression of CCK-8 stimulated pancreatic amylase activity” value is reported as 123 pmol/kg and the “ED50 for suppression of CCK-8 stimulated pancreatic lipase activity” value is reported as 123 pmol/kg. Further, the “effect on basal pancreatic enzyme secretion” value in data set [2] was “no effect”. The tolerability entry in data set [3] is given as “well tolerated”.

In the case of “^28Pro-h-amylin (KCNTATCATQRLANFLVHSSNNFGAILPSTNVGSNTY)”, the “amylin activity in vivo” value in data set [4] is given as “show amylin activity in vivo”.

In the data set with rat pancreas (CCK-8 1 μg s.c. alone), “cholecystokinin octapeptide [CCK-8, reference compound]” came in with an Amylase of 459.76 ± 52.49 U/45 min, a Lipase of 723.56 ± 100.56 U/45 min and a Pancreatic flow of 99 ± 13 μl/45 min.

Take “des-^1Lys-h-amylin (CNTATCATQRLANFLVHSSNNFGAILSSTNVGSNTY; ends and bridges not checked; cysteine pairing not given here; UniProt P10997 35-70, looked up, fragment)”: in data set [4], the “amylin activity in vivo” value is listed as “show amylin activity in vivo”.

As to des-^1Lys^18Arg^25,28Pro-h-amylin, the “amylin activity in vivo” value in data set [4] is reported as “show amylin activity in vivo”.
